The values below come from patent publication US5216159A (priority 1991, dated 1993).

Where a name gives a salt, the structure may show the parent alone.

One test deals with benzodiazepine binding site.
Test: not given
Conditions: cited from earlier work.
For the compound `CN1CCc2cc3c(cc2C1C1OC(=O)c2c1ccc1c2OCO1)OCO3` (single isomer, unassigned; (-)) [(-) bicuculline], the “blockade of enhancement of benzodiazepine binding by GABA agonists” value was “much less active”.
Turning to `CN1CCc2cc3c(cc2C1C1OC(=O)c2c1ccc1c2OCO1)OCO3` (single isomer, unassigned; (+)) [(+) bicuculline], the “blockade of enhancement of benzodiazepine binding by GABA agonists” value was “blocked”.

In another test the target is GABAa receptor. The test can be described thus: GABAa receptor binding assay ([3H]-RO15-1788 [3H-Flumanzenil] displacement, rat cortical tissue). The settings on record: 0.5 nM 3H-RO15-1788, rat cortical tissue, 30 min at 4° C. Here is the method: The pharmaceutical utility of compounds of this invention are indicated by the following assay for GABAa receptor activity.
Assays are carried out as described in Thomas and Tallman (J. Bio. Chem. 156: 9838-9842, J. Neurosci. 3:433-440, 1983). Rat cortical tissue is dissected and homogenized in 25 volumes (w/v) of 0.05 M Tris HCl buffer (pH 7.4 at 4° C.). The tissue homogenate is centrifuged in the cold (4°) at 20,000×g for 20'. The supernatant is decanted and the pellet is rehomogenized in the same volume of buffer and again centrifuged at 20,000×g. The supernatant is decanted and the pellet is frozen at -20° C. overnight. The pellet is then thawed and rehomogenized in 25 volume (original wt/vol) of buffer and the procedure is carried out twice. The pellet is finally resuspended in 50 volumes (w/vol of 0.05 M Tris HCl buffer (pH 7.4 at […]).
Incubations contain 100 μl of tissue homogenate, 100 μl of radioligand 0.5 nM (^3 H-RO15-1788 [^3 H-Flumanzenil] specific activity 80 Ci/mmol), drug or blocker and buffer to a total volume of 500 μl. Incubations are carried for 30 min at 4° C. then are rapidly filtered through GFB filters to separate free and bound ligand. Filters are washed twice with fresh 0.05 M tris HCl buffer (pH 7.4 at 4° C.) and counted in a liquid scintillation counter. 1.0 μM diazepam is added to some tubes to determine nonspecific binding. Data are collected in triplicate determinations, averaged and % inhibition of total specific binding is calculated. Total Specific Binding=Total-Nonspecific. In some cases, the amounts of unlabeled drugs is varied and total displacement curves of binding are carried out. Data are converted to a form for the calculation of IC50 and Hill Coefficient (nH).
Turning to `CN1C(=O)CCC12CCc1[nH]c3cnc(-c4ccccc4)nc3c1C2` (centres unmarked) [Compound 11, 1-Methyl-2-phenyl-5,6,7,9-tetrahydro-spiro[indolo[3,2-d]-pyrimidine-2',8-pyrrolidin-5'-one]], the IC50 came to 50 nM.
`c1csc(-c2ncc3[nH]c4c(c3n2)CCCC4)c1` [Compound 10, 2-(2-Thienyl)-6,7,8,9-tetrahydro-5H-indolo[3,2-d]-pyrimidine]: the 50% inhibitory concentration (IC50) is 9 nM.
As to `c1ccc(-c2ncc3[nH]c4c(c3n2)CCC4)cc1` [Compound 2, 2-Phenyl-cyclopent(g)-5H-pyrrolo[3,2-d]-pyrimidine], the IC50 came to 110 nM.
As to `COc1ccc(-c2ncc3[nH]c4c(c3n2)CC2(CCCO2)CC4)cc1` (centres unmarked) [Compound 15, 2-(4-Methoxyphenyl)-4,5,5',6',7',9'-hexahydro-spiro[furan-2,8'(3H)-indolo[3,2-d]-pyrimidine]], the half-maximal inhibitory concentration (IC50) turned out to be 50 nM.
For `c1ccc(-c2ncc3[nH]c4c(c3n2)CCCCC4)cc1` [Compound 3, 2-Phenyl-cyclohept(g)-pyrrolo[3,2-d]-5H-pyrimidine], the concentration for half-maximal inhibition (IC50) was 1000 nM.
Still for that read-out and setting: the value for `c1ccc(-c2ncc3[nH]c4c(c3n2)COCC4)cc1` [Compound 26, 2-Phenyl-5,6,7,9-tetrahydro-5H-pyrano[4,3-b]pyrimidino[4,5-d]-pyrrole] was 400 nM; that for `c1ccc(-c2ncc3[nH]c4c(c3n2)CC2(CC4)OCCO2)cc1` [Compound 12, 2'-Phenyl-5',6',7',9'-tetrahydro-spiro[(1,3)dioxolane-2,8'-indolo[3,2-d]-pyrimidine]] was 25 nM; that for `COc1ccc(-c2ncc3[nH]c4c(c3n2)CCCC4)cc1` [Compound 7, 2-(4-Methoxyphenyl)-6,7,8,9-tetrahydro-5H-indolo[3,2-d]-pyrimidine] was 39 nM.
Take `c1ccc(-c2ncc3[nH]c4c(c3n2)CCCC4)cc1` [Compound 1, 2-Phenyl-6,7,8,9-tetrahydro-5H-indolo[3,2-d]-pyrimidine]: the 50% inhibitory concentration (IC50) was 100 nM.
Still for that read-out and setting: as for `COc1ccc(-c2ncc3[nH]c4c(c3n2)CCC4)cc1` [Compound 9, 2-(4-Methoxyphenyl)-cyclopent(g)-5H-pyrrolo[3,2-d]-pyrimidine], the figure is 18 nM.
Turning to `c1ccc(COC2CCc3[nH]c4cnc(-c5ccccc5)nc4c3C2)cc1` (centres unmarked) [Compound 5, 2-Phenyl-8-benzyloxy-6,7,8,9-tetrahydro-5H-indolo[3,2-d]-pyrimidine], the IC50 is 100 nM. Against the preceding compound, the IC50 is about 5.6-fold higher.
Turning to `c1ccc(CN2CCc3[nH]c4cnc(-c5ccccc5)nc4c3C2)cc1` [Compound 32, 8-Benzyl-2-phenyl-5,6,7,9-tetrahydro-5H-pyrido[4,3-b]-pyrimidino[4,5-d]-pyrrole monohydrochloride], the half-inhibitory concentration (IC50) came out at 13 nM.
